In patent EP1388013B1, “COMPOSITIONS AND METHODS FOR THE USE OF FIBRONECTIN FRAGMENTS IN THE DIAGNOSIS OF CANCER” (THE REGENTS OF THE UNIVERSITY OF MICHIGAN, priority 2001, dated 2002):
Entries after “also recorded” stand apart in the source; their conditions may differ. Non-standard residues stand in square brackets, D forms with d. Residues, ends and D or L forms follow the SMILES beside them. No end group written: not given here. hCys = N[C@@H](CCS)C(=O)O

What was measured:
[1] = system: metastatic DU-145 prostate cancer cells; experiment: SU-ECM invasion assay, DU-145 cells; type: cell-based, human; settings: for concentration that completely inhibits the invasion of metastatic DU145 cells: Example 10; for concentration that completely (fully) inhibits the invasion of metastatic DU145 cells: Example 11, Figure 7, molar basis; for inhibition of serum-induced invasion of DU-145 cells: Figure 4A; for inhibition of PHSRN-induced invasion of DU-145 cells: serum-free medium, 100 ng per ml PHSRN, Figure 4B; for IC100: Homo sapiens, DU-145, read-out: concentration that completely (fully) inhibits the invasion of metastatic DU145 cells
Protocol: (§1) Adult Strongylocentrotus purpuratus sea urchins were obtained from Pacific BioMarine, and their embryos were cultured to the early pluteus stage in artificial sea water at 15°C. SU-ECM were prepared from them by treatment with nonionic detergent and sterilized by dilution in the appropriate media.
(§2) […] When appropriate, purified bovine plasma fibronectin (Sigma, St. Louis, Mo), purified 120 kDa chymotryptic fragment (Gibco BRL), PHSRN or PHSCN peptides (synthesized at the Biomedical Research Core Facilities of the University of Michigan), or GRGDSP or GRGESP peptides (Gibco BRL) were added to the resuspended cells prior to placement of the cells on SU-ECM. In each well of a plate used for an invasion assay, SU-ECM were placed in 0.5 ml of the appropriate medium, and 0.5ml of the resuspended cells dropped on their exterior surfaces. Invasion assays were incubated 1 to 16 hours prior to scoring. If some circumstances, invasion assays were fixed in phosphate-buffered saline (PBS) with 2% formaldehyde for 5 minutes at room temperature, then rinsed into PBS.
(§3) Invasion assays were coded and scored blindly by microscopic examination under phase contrast at 200- and 400-fold magnification. Each cell contacting an SU-ECM was scored for its position relative to the exterior or interior surfaces. A cell was judged to have invaded if it was located on an interior surface below the focal plane passing through the upper surface of the SU-ECM, but above the focal plane passing through its lower surface. The minimum viability of the cells in each assay was always ascertained at the time of assay by determining the fraction of spread, adherent cells on the bottom of each well scored.
(§4) An invasion frequency is defined as the fraction of cells in contact with basement membranes which were located in their interiors at the time of assay. Thus, an invasion frequency of 1 denotes invasion by 100% of the cells in contact with basement membranes. Invasion frequencies were determined multiple times for each cell type assayed. For each type of cell assayed the mean and standard deviation of the invasion frequencies were calculated.
(§5) The method of Example 4 is employed, with the addition of varying concentrations of the PHSCN peptide.
(§6) Thus, the procedure in Example 4 provides a method for determining the inhibitory potential of the PHSCN peptide by comparing the number of cell invasions in the presence of the PHSCN peptide, with the number of cell invasions in the absence of the PHSCN peptide.
In this example, in vitro invasion of cancer cells into substrates is inhibited with peptides that have been chemically modified with protecting groups and peptides having protecting groups as well as the modification wherein an L-amino acid has been replaced with the D-isomer. PHSCN peptide, blocked PHSCN peptide, and blocked PHSCN peptide with a D-cysteine instead of the L-isomer, were tested (Figure 4A, 4B).
In this example, in vitro invasion of cancer cells into substrates is inhibited with non-peptide mimetics in comparison with chemically modified peptides (on a molar basis). The peptides of Example 10 (i.e. peptides chemically modified with protecting groups and peptides having protecting groups as well as the modification wherein an L-amino acid has been replaced with the D-isomer) were compared with the non-peptide mimetics DL-N-Acetylhomocysteinethiolactone, Thiobutyrolactone, and Mercaptopropionic acid, in order to investigate the structure activity relationship for invasion inhibition by interaction with the PHSRN-binding pocket of the α5β1 fibronectin receptor (Figure 7)

neonatal fibroblasts = experiment: SU-ECM invasion assay, neonatal fibroblasts; type: cell-based, human; settings: in the presence (10% FCS) or absence of serum; molar concentration equivalent to plasma fibronectin in serum; Figure 9
From the text: In one example cells for the invasion assay are harvested by rinsing in Hanks' balanced salt solution, followed by brief treatment with 0.25% trypsin, 0.02% EDTA, and pelleting and resuspension in the appropriate medium with or without 5% FCS at a density of about 50,000 cells per ml. When appropriate, purified bovine plasma fibronectin (from Sigma, St. Louis, Mo), purified 120 kDa chymotryptic fragment (Gibco BRL) or PHSRN peptides (synthesized at the Biomedical Research Core Facilities of the University of Michigan) are added to the resuspended cells prior to placement of the cells on SU-ECM. In each well of a plate used for an invasion assay, SU-ECM were placed in 0.5 ml of the appropriate medium, and 0.5ml of the resuspended cells dropped on their exterior surfaces. Invasion assays were incubated 1 to 16 hours prior to assay. If some circumstances, invasion assays were fixed in phosphate-buffered saline (PBS) with 2% formaldehyde for 5 minutes at room temperature, then rinsed into PBS.
as §3, with “are” for “were”, “is” for “was”
An invasion frequency is defined as the fraction of cells in contact with basement membranes which are located in their interiors at the time of assay. Thus, an invasion frequency of 1 denotes invasion by 100% of the cells in contact with basement membranes. Invasion frequencies are determined multiple times for each cell type assayed. For each type of cell assayed the mean and standard deviation of the invasion frequencies were calculated.
In this example, the invasiveness of neonatal fibroblasts into an SU-ECM invasion substrate is considered. Experiments were performed under serum-free conditions, or in medium with 10% fetal calf serum (FCS). Neither serum-free medium nor medium containing serum supported fibroblast invasion. However, consistent with the induction of metalloproteinase gene transcription by the 120 kDa fragment of plasma fibronectin (pFn) containing the cell-binding domain, the 120 kDa fragment induced fibroblast invasion in the presence or in the absence of serum. […]

[2] = system: normal human mammary epithelial cells; experiment: SU-ECM invasion assay, normal mammary epithelial cells; type: cell-based; settings: 10% FCS, 100 ng per ml PHSRN, Figure 3B
Protocol: as §1, §2, §3
(§7) An invasion frequency is defined as the fraction of cells in contact with basement membranes which were located in their interiors at the time of assay. […] Invasion frequencies were determined multiple times for each cell type assayed. For each type of cell assayed the mean and standard deviation of the invasion frequencies were calculated. […]

[3] = system: normal human prostate epithelial cells; experiment: SU-ECM invasion assay, normal prostate epithelial cells; type: cell-based; settings: 10% FCS, 100 ng per ml PHSRN, Figure 4B
Protocol: as §1, §2, §3, §7

[4] = system: metastatic SUM-52 PE breast cancer cells; experiment: SU-ECM invasion assay, SUM-52 PE cells; type: cell-based, human; settings: for inhibition of serum-induced invasion of SUM-52 PE cells: medium with 5% serum, Figure 3A; for inhibition of PHSRN-induced invasion of SUM-52 PE cells: serum free media, 100 ng per ml PHSRN, Figure 3B
Protocol: as §1
Cells were harvested by rinsing in Hanks balanced salt solution, followed by brief treatment with 0.25% trypsin, 0.02% EDTA, and pelleting and resuspension in the appropriate medium with or without 5% FCS at a density of about 50,000 cells per ml. When appropriate, purified bovine plasma fibronectin (Sigma, St. Louis, Mo), purified 120 kDa chymotryptic fragment (Gibco BRL), PHSRN or PHSCN peptides (synthesized at the Biomedical Research Core Facilities of the University of Michigan), or GRGDSP or GRGESP peptides (Gibco BRL) were added to the resuspended cells prior to placement of the cells on SU-ECM. In each well of a plate used for an invasion assay, SU-ECM were placed in 0.5 ml of the appropriate medium, and 0.5ml of the resuspended cells dropped on their exterior surfaces. Invasion assays were incubated 1 to 16 hours prior to scoring. If some circumstances, invasion assays were fixed in phosphate-buffered saline (PBS) with 2% formaldehyde for 5 minutes at room temperature, then rinsed into PBS.
as §3, §4, §5, §6

[5] = system: rat metastatic prostate carcinoma MatLyLu (MLL) cells; experiment: SU-ECM invasion assay, MatLyLu cells; type: cell-based; settings: 10% FCS, Figure 5
Protocol: as §1
[…] When appropriate, purified bovine plasma fibronectin (Sigma, St. Louis, Mo), purified 120 kDa chymotryptic fragment (Gibco BRL), PHSRN or PHSCN peptides (synthesized at the Biomedical Research Core Facilities of the University of Michigan), or GRGDSP or GRGESP peptides (Gibco BRL) were added to the resuspended cells prior to placement of the cells on SU-ECM. […]
Invasion assays were coded and scored blindly by microscopic examination under phase contrast at 200- and 400-fold magnification. Each cell contacting an SU-ECM was scored for its position relative to the exterior or interior surfaces. […] The minimum viability of the cells in each assay was always ascertained at the time of assay by determining the fraction of spread, adherent cells on the bottom of each well scored.
An invasion frequency is defined as the fraction of cells in contact with basement membranes which were located in their interiors at the time of assay. […] Invasion frequencies were determined multiple times for each cell type assayed. […]

[6] = DU145 invasion inhibition, 10% serum

Ac-PHSCN-NH2 [Ac-PHSCN-NH2]
concentration that completely inhibits the invasion of metastatic DU145 cells ([1]; medium with 10% serum): approximately 1.3 ng/ml
concentration that completely (fully) inhibits the invasion of metastatic DU145 cells ([1]; medium with 10% serum): approximately 0.06 µM

N=C(N)NCCC[C@H](NC(=O)CN)C(=O)NCC(=O)N[C@@H](CC(=O)O)C(=O)N[C@@H](CO)C(=O)O [GRGDS, reference compound]
induction of fibroblast invasion of SU-ECM (neonatal fibroblasts): no detectable activity

PHSCN [PHSCN]
inhibition of PHSRN-induced invasion of normal human mammary epithelial cells ([2]; higher concentrations): almost complete inhibition
inhibition of PHSRN-induced invasion of normal human mammary epithelial cells ([2]; low concentrations): substantial inhibitory affect
inhibition of PHSRN-induced invasion of normal human prostate epithelial cells ([3]; higher concentrations): almost complete inhibition
inhibition of PHSRN-induced invasion of normal human prostate epithelial cells ([3]; low concentrations): substantial inhibitory affect
inhibition of serum-induced invasion of SUM-52 PE cells ([4]; relatively high concentrations): complete inhibition
inhibition of serum-induced invasion of SUM-52 PE cells ([4]; relatively low concentrations): substantial inhibitory affect
inhibition of PHSRN-induced invasion of SUM-52 PE cells ([4]; higher concentrations): almost complete inhibition
inhibition of PHSRN-induced invasion of SUM-52 PE cells ([4]; low concentrations): substantial inhibitory affect
inhibition of serum-induced invasion of DU-145 cells ([1]; 10% serum, relatively high concentrations): complete inhibition
inhibition of serum-induced invasion of DU-145 cells ([1]; 10% serum, relatively low concentrations): substantial inhibitory affect
concentration that completely inhibits the invasion of metastatic DU145 cells ([1]; medium with 10% serum): 3 ng/mL
concentration that completely (fully) inhibits the invasion of metastatic DU145 cells ([1]; medium with 10% serum): approximately 2 µM
inhibition of PHSRN-induced invasion of DU-145 cells ([1]; higher concentrations): almost complete inhibition
inhibition of PHSRN-induced invasion of DU-145 cells ([1]; low concentrations): substantial inhibitory affect

NC(=O)C[C@H](NC(=O)[C@H](CCS)NC(=O)[C@H](CO)NC(=O)[C@H](Cc1c[nH]cn1)NC(=O)[C@@H]1CCCN1)C(=O)O [PHS(hC)N] (H-PHS[hCys]N-OH)
inhibition of serum-induced invasion of MLL cells ([5]; higher concentrations): completely inhibits invasion
inhibition of serum-induced invasion of MLL cells ([5]; lower concentrations): substantially inhibits invasion

O=C(O)CCS [Mercaptopropionic acid]
times less active in invasion inhibition than thiobutyrolactone [1, 6]: at least 100 times
times less active than the unblocked PHSCN peptide [1, 6]: ≥ 1500 times
reduction of DU145 invasion ([1]; at any of the concentrations tested, 10% serum): ≤ 20%

CC(=O)NC1CCSC1=O (racemic) [DL-N-Acetylhomocysteinethiolactone]
fold less active than blocked PHSCN [1, 6]: about 10 fold
fold more active than the unblocked PHSCN peptide [1, 6]: about 3 fold
IC100 [1]: 0.6 µM

O=C1CCCS1 [Thiobutyrolactone]
fold less active than N-acetylhomocysteinethiolactone [1, 6]: 50 fold
fold less active than blocked PHSCN [1, 6]: about 500 fold
times less active than the unblocked PHSCN peptide [1, 6]: 15 times
IC100 [1]: 30 µM

CC(=O)N1CCC[C@H]1C(=O)N[C@@H](Cc1c[nH]cn1)C(=O)N[C@@H](CO)C(=O)N[C@H](CS)C(=O)N[C@@H](CC(N)=O)C(N)=O [Ac-PHS(dC)N-NH2] (Ac-PHS[dC]N-NH2)
invasion-inhibitory activity compared with Ac-PHSCN-NH2 ([1]; DU145 cells, medium with 10% serum, D-isomer of cysteine substituted): further increases the invasion-inhibitory activity; also recorded: further increases very substantially the invasion-inhibitory activity
